Measured values: PubChem BioAssay (NCI)
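Exposure lasted 48 hours, with cells grown in 96-well plates and compounds tested at five concentrations. GI50: concentration for 50% inhibition of growth. The concentration for full growth arrest is given as TGI.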

Legend:
Assay in all cases: DTP human tumour cell line panel, 48 h
A498 renal = tested on: A498 renal
A549 NSCLC = tested on: A549 NSCLC
ACHN renal = tested on: ACHN renal
BT-549 breast = tested on: BT-549 breast
CAKI-1 renal = tested on: CAKI-1 renal
COLO 205 colon = tested on: COLO 205 colon
DU-145 prostate = tested on: DU-145 prostate
EKVX NSCLC = tested on: EKVX NSCLC
HCC-2998 colon = tested on: HCC-2998 colon
HCT-116 colon = tested on: HCT-116 colon
HCT-15 colon = tested on: HCT-15 colon
HL-60(TB) leukemia = tested on: HL-60(TB) leukemia
HOP-62 NSCLC = tested on: HOP-62 NSCLC
HOP-92 NSCLC = tested on: HOP-92 NSCLC
HS 578T breast = tested on: HS 578T breast
HT29 colon = tested on: HT29 colon
IGROV1 ovarian = tested on: IGROV1 ovarian
K-562 leukemia = tested on: K-562 leukemia
KM12 colon = tested on: KM12 colon
LOX IMVI melanoma = tested on: LOX IMVI melanoma
M14 melanoma = tested on: M14 melanoma
MALME-3M melanoma = tested on: MALME-3M melanoma
MDA-MB-231 breast = tested on: MDA-MB-231 breast
MDA-MB-435 = tested on: MDA-MB-435
MOLT-4 leukemia = tested on: MOLT-4 leukemia
NCI-H226 lung = tested on: NCI-H226 lung
NCI-H23 lung = tested on: NCI-H23 lung
NCI-H460 lung = tested on: NCI-H460 lung
NCI-H522 lung = tested on: NCI-H522 lung
NCI/ADR-RES ovarian = tested on: NCI/ADR-RES ovarian
OVCAR-3 ovarian = tested on: OVCAR-3 ovarian
OVCAR-4 ovarian = tested on: OVCAR-4 ovarian
OVCAR-5 ovarian = tested on: OVCAR-5 ovarian
OVCAR-8 ovarian = tested on: OVCAR-8 ovarian
PC-3 prostate = tested on: PC-3 prostate
RPMI-8226 leukemia = tested on: RPMI-8226 leukemia
RXF 393 renal = tested on: RXF 393 renal
SF-268 CNS = tested on: SF-268 CNS
SF-295 CNS = tested on: SF-295 CNS
SF-539 CNS = tested on: SF-539 CNS
SK-MEL-2 melanoma = tested on: SK-MEL-2 melanoma
SK-MEL-28 melanoma = tested on: SK-MEL-28 melanoma
SK-MEL-5 melanoma = tested on: SK-MEL-5 melanoma
SK-OV-3 ovarian = tested on: SK-OV-3 ovarian
SN12C renal = tested on: SN12C renal
SNB-19 CNS = tested on: SNB-19 CNS
SNB-75 CNS = tested on: SNB-75 CNS
SR leukemia = tested on: SR leukemia
SW-620 colon = tested on: SW-620 colon
T-47D breast = tested on: T-47D breast
TK-10 renal = tested on: TK-10 renal
U251 CNS = tested on: U251 CNS
UACC-257 melanoma = tested on: UACC-257 melanoma
UACC-62 melanoma = tested on: UACC-62 melanoma
786-0 renal = tested on: 786-0 renal
CCRF-CEM leukemia = tested on: CCRF-CEM leukemia
UO-31 renal = tested on: UO-31 renal

## O=C(Nc1ccc(Cl)cc1)Nc1ccc(Oc2nncc3ccccc23)cc1
A498 renal
  GI50: 1.5 µM
  TGI: 3.06 µM
A549 NSCLC
  GI50: 2.81 µM
  TGI: 11.5 µM
ACHN renal
  GI50: 1.05 µM
  TGI: 2.33 µM
BT-549 breast
  GI50: 2.08 µM
  TGI: 7.43 µM
CAKI-1 renal
  GI50: 2.72 µM
  TGI: 8.7 µM
COLO 205 colon
  GI50: 1.18 µM
  TGI: 2.92 µM
DU-145 prostate
  GI50: 0.736 µM
  TGI: 2.08 µM
EKVX NSCLC
  GI50: 1.61 µM
  TGI: 4.5 µM
HCC-2998 colon
  GI50: 1.84 µM
  TGI: 3.48 µM
HCT-116 colon
  GI50: 0.326 µM
  TGI: 1.2 µM
HCT-15 colon
  GI50: 0.961 µM
  TGI: 3.08 µM
HL-60(TB) leukemia
  GI50: 1.08 µM
  TGI: 13.4 µM
HOP-62 NSCLC
  GI50: 1.09 µM
  TGI: 4.32 µM
HOP-92 NSCLC
  GI50: 1.64 µM
  TGI: 4.38 µM
HS 578T breast
  GI50: 0.696 µM
  TGI: 47 µM
HT29 colon
  GI50: 0.465 µM
  TGI: 2.39 µM
IGROV1 ovarian
  GI50: 1.16 µM
  TGI: 5 µM
K-562 leukemia
  GI50: 0.376 µM
  TGI: 10.9 µM
KM12 colon
  GI50: 0.888 µM
  TGI: 2.65 µM
LOX IMVI melanoma
  GI50: 0.166 µM
  TGI: 0.455 µM
M14 melanoma
  GI50: 1.12 µM
  TGI: 3.16 µM
MALME-3M melanoma
  GI50: 0.448 µM
  TGI: 2.31 µM
MDA-MB-231 breast
  GI50: 0.399 µM
  TGI: 3.68 µM
MDA-MB-435
  GI50: 0.29 µM
  TGI: 1.07 µM
MOLT-4 leukemia
  GI50: 0.376 µM
  TGI: > 100 µM
NCI-H226 lung
  GI50: 0.623 µM
  TGI: 5.42 µM
NCI-H23 lung
  GI50: 0.751 µM
  TGI: 2.87 µM
NCI-H460 lung
  GI50: 2.79 µM
  TGI: 8.32 µM
NCI-H522 lung
  GI50: 0.193 µM
  TGI: 0.419 µM
NCI/ADR-RES ovarian
  GI50: 2.63 µM
  TGI: > 100 µM
OVCAR-3 ovarian
  GI50: 0.354 µM
  TGI: 1.15 µM
OVCAR-4 ovarian
  GI50: 0.753 µM
  TGI: 3.49 µM
OVCAR-5 ovarian
  GI50: 1.89 µM
  TGI: 4.47 µM
OVCAR-8 ovarian
  GI50: 1.1 µM
  TGI: 13.6 µM
PC-3 prostate
  GI50: 1.64 µM
  TGI: 6.08 µM
RPMI-8226 leukemia
  GI50: 0.488 µM
  TGI: 4.58 µM
RXF 393 renal
  GI50: 0.312 µM
  TGI: 1.05 µM
SF-268 CNS
  GI50: 1.35 µM
  TGI: 7.21 µM
SF-295 CNS
  GI50: 2.54 µM
  TGI: 6.27 µM
SF-539 CNS
  GI50: 0.28 µM
  TGI: 1.13 µM
SK-MEL-2 melanoma
  GI50: 1.57 µM
  TGI: 3.65 µM
SK-MEL-28 melanoma
  GI50: 0.422 µM
  TGI: 1.65 µM
SK-MEL-5 melanoma
  GI50: 1.2 µM
  TGI: 2.81 µM
SK-OV-3 ovarian
  GI50: 1.74 µM
  TGI: 5.48 µM
SN12C renal
  GI50: 1.03 µM
  TGI: 3.58 µM
SNB-19 CNS
  GI50: 1.74 µM
  TGI: 4.79 µM
SNB-75 CNS
  GI50: 0.451 µM
  TGI: 1.95 µM
SR leukemia
  GI50: 0.401 µM
  TGI: > 100 µM
SW-620 colon
  GI50: 0.348 µM
  TGI: 1.6 µM
T-47D breast
  GI50: 0.245 µM
  TGI: 0.768 µM
TK-10 renal
  GI50: 2.12 µM
  TGI: 4.28 µM
U251 CNS
  GI50: 1.01 µM
  TGI: 2.38 µM
UACC-257 melanoma
  GI50: 1.5 µM
  TGI: 4.04 µM
UACC-62 melanoma
  GI50: 1.08 µM
  TGI: 3.46 µM

## N#Cc1ccc(Oc2nc3ccccc3nc2C(=O)O)cc1
786-0 renal
  TGI: > 100 µM
A498 renal
  TGI: > 100 µM
A549 NSCLC
  TGI: > 100 µM
ACHN renal
  TGI: > 100 µM
BT-549 breast
  TGI: > 100 µM
CAKI-1 renal
  TGI: > 100 µM
CCRF-CEM leukemia
  TGI: > 100 µM
COLO 205 colon
  TGI: > 100 µM
DU-145 prostate
  TGI: > 100 µM
EKVX NSCLC
  TGI: > 100 µM
HCC-2998 colon
  TGI: > 100 µM
HCT-116 colon
  TGI: > 100 µM
HCT-15 colon
  TGI: > 100 µM
HL-60(TB) leukemia
  TGI: > 100 µM
HOP-62 NSCLC
  TGI: > 100 µM
HOP-92 NSCLC
  TGI: > 100 µM
HS 578T breast
  TGI: > 100 µM
HT29 colon
  TGI: > 100 µM
IGROV1 ovarian
  TGI: > 100 µM
K-562 leukemia
  TGI: > 100 µM
KM12 colon
  TGI: > 100 µM
LOX IMVI melanoma
  TGI: > 100 µM
M14 melanoma
  TGI: > 100 µM
MALME-3M melanoma
  TGI: > 100 µM
MDA-MB-231 breast
  TGI: > 100 µM
MDA-MB-435
  TGI: > 100 µM
MOLT-4 leukemia
  TGI: > 100 µM
NCI-H226 lung
  TGI: > 100 µM
NCI-H23 lung
  TGI: > 100 µM
NCI-H460 lung
  TGI: > 100 µM
NCI-H522 lung
  TGI: > 100 µM
NCI/ADR-RES ovarian
  TGI: > 100 µM
OVCAR-3 ovarian
  TGI: > 100 µM
OVCAR-4 ovarian
  TGI: > 100 µM
OVCAR-5 ovarian
  TGI: > 100 µM
OVCAR-8 ovarian
  TGI: > 100 µM
PC-3 prostate
  TGI: > 100 µM
RPMI-8226 leukemia
  TGI: > 100 µM
RXF 393 renal
  TGI: > 100 µM
SF-268 CNS
  TGI: > 100 µM
SF-295 CNS
  TGI: > 100 µM
SK-MEL-2 melanoma
  TGI: > 100 µM
SK-MEL-28 melanoma
  TGI: > 100 µM
SK-MEL-5 melanoma
  TGI: > 100 µM
SK-OV-3 ovarian
  TGI: > 100 µM
SNB-19 CNS
  TGI: > 100 µM
SNB-75 CNS
  TGI: > 100 µM
SR leukemia
  TGI: > 100 µM
SW-620 colon
  TGI: > 100 µM
T-47D breast
  TGI: > 100 µM
TK-10 renal
  TGI: > 100 µM
U251 CNS
  TGI: > 100 µM
UACC-257 melanoma
  TGI: > 100 µM
UACC-62 melanoma
  TGI: > 100 µM
UO-31 renal
  TGI: > 100 µM
